Data: the Biogen ADME set (Fang et al. 2023)
Converted amounts (≈) assume the structure as drawn.

Conditions: for aqueous solubility: pH 6.8

Compound	MDR1-MDCK efflux ratio	intrinsic clearance, human liver microsomes [mL/min/kg]	intrinsic clearance, rat liver microsomes [mL/min/kg]	aqueous solubility [µg/mL]	fraction unbound, human plasma	fraction unbound, rat plasma
O=C(NC1=NS(=O)(=O)c2ccccc21)c1cc(-c2ccc(F)cc2)no1	2.56	90.3	≤ 10.7	31.8 (≈ 85.5 µM)	–	–
Cc1cc(OCC(=O)N(C)C2CCCCCCC2)no1	0.765	56.6	2210	43.9 (≈ 156 µM)	–	–
Cc1cc(Br)cn(Cc2ccc(C#N)cc2F)c1=O	0.644	≤ 4.74	102	–	–	–
CN(C)S(=O)(=O)CCCN1CCC(CCC(N)=O)CC1	0.425	≤ 4.74	≤ 10.7	–	–	–
Cc1cc(C(=O)N2CCN(C(=O)C3CCC3)CC2)c(O)cn1	29.1	≤ 4.74	≤ 10.7	–	–	–
Cc1nc2cc(-c3nccn3C)nn2c(NCc2cccnc2)c1C	28.5	14.7	379	55.7 (≈ 167 µM)	–	–
COc1cn(-c2ccc(-n3cccn3)cc2F)nc(-c2ccnn2-c2ccccc2)c1=O	10.9	≤ 4.74	28.2	–	–	–
Cn1cc(NC(=O)c2cnn3cccnc23)c(C2CCCCC2)n1	1.23	37.7	188	–	–	–
O=C(Cc1csc(-c2ccc(F)cc2)n1)N1CCC(n2c(=O)[nH]c3ccccc32)CC1	–	346	2820	–	–	–
CSC1(CNC(=O)N2CCC=C(c3ccccc3)C2)CCOCC1	1.61	120	2750	–	–	–
CC(C)S(=O)(=O)c1ccc2nccc(Nc3ccc4scnc4c3)c2c1	14.6	–	–	38.5 (≈ 100 µM)	–	–
Cc1nc(CCN2C(=O)NC(C)(C)C2=O)cs1	4.61	≤ 4.74	21.7	31.9 (≈ 126 µM)	–	–
CC(C)(C)c1cc(NS(=O)(=O)c2cccc(F)c2)cc(C(C)(C)C)c1	–	10	306	–	–	–
N#Cc1cccc(-c2ccc(=O)n3c2[C@@H]2C[C@@H](CN(Cc4ccc(F)cc4)C2)C3)c1	6.11	218	1470	32.4 (≈ 81.2 µM)	–	–
CN(C(=O)c1cc(N2CCNC2=O)ccc1F)C1CCC(N)CC1 (stereo unspecified)	1.02	≤ 4.74	–	–	0.674	–
CN(Cc1ccc(Br)o1)C(=O)CN1CCCC1=O	2.67	≤ 4.74	16.7	70 (≈ 222 µM)	–	–
CCc1nc(C)c(Cn2ccnc2-c2cnc(N3CCCC3)nc2)s1	4.25	31.9	548	35 (≈ 98.9 µM)	–	–
O=C(c1cc(-c2ccc(F)cc2)on1)N1CC[C@H](Oc2ccccc2F)[C@@H](O)CC1	0.861	48.5	600	–	–	–
CC(C)n1c(=O)cc(N[C@@H](C)c2ccccc2)[nH]c1=O	58.2	≤ 4.74	30.4	–	–	–

Compound	MDR1-MDCK efflux ratio	intrinsic clearance, human liver microsomes [mL/min/kg]	intrinsic clearance, rat liver microsomes [mL/min/kg]	aqueous solubility [µg/mL]	fraction unbound, human plasma	fraction unbound, rat plasma
Cn1cc(NC(=O)c2ccccc2C(F)(F)F)cn1	0.828	≤ 4.74	≤ 10.7	37.7 (≈ 140 µM)	–	–
CC(=O)NC[C@H]1C[C@]2(C)[C@@H](CCCC[C@]2(C)O)N1CC1(O)CCOCC1	9.46	8.98	41.2	–	–	–
COc1ccccc1-c1cc(NC(=O)c2cccc(N3CCNC3=O)c2)[nH]n1	60.4	7.53	103	5.95 (≈ 15.8 µM)	0.004	0.00181
CCc1nnc(N2CC(N(C)C)C2)c(C#N)c1CC	0.843	9.15	130	–	–	–
Cn1c(=O)n(-c2ccc(C(C)(C)C#N)cc2)c2c3cc(-c4cnc5ccccc5c4)ccc3ncc21	–	67.3	91.3	–	–	–
CCCc1ncncc1C(=O)NCc1nncn1CCC	14.7	≤ 4.74	38.8	–	–	–
Cc1cncc(CN2CCC(=C3c4ccc(Cl)cc4CCc4cccnc43)CC2)c1	1.45	511	1010	–	–	–
C[C@@H]1c2nnn(-c3ncc(F)cn3)c2CCN1C(=O)c1cccc(C(F)(F)F)c1Cl	3.42	≤ 4.74	≤ 10.7	35.4 (≈ 80.2 µM)	0.0931	0.174
CC1CCC(N(Cc2nnc(C3CCC3)o2)C2CCC(O)CC2)CC1 (stereo unspecified)	2.03	230	1610	–	–	–
NCC(=O)Nc1ccc(-n2nc(C(F)(F)F)cc2-c2ccc3c(ccc4ccccc43)c2)cc1	2.96	–	–	0.25 (≈ 0.543 µM)	–	–
CCS(=O)(=O)N1CCN(c2ccc(Nc3ncc(C(N)=O)c(NC4CC4)n3)cc2)CC1	39.4	9.73	36.3	–	–	–
Cc1cc2ccccc2n1CC(=O)N1CCc2ccc(O)cc2C1	2.59	25.3	456	12.4 (≈ 38.8 µM)	–	–
COc1ccc(Nc2c(C#N)cnc3cc(OC)c(OC)cc23)cc1Cl	3.24	53.1	574	–	0.00925	0.0131
Nc1nc(-c2ccccc2)nc2nc(C3CCCN(CC(=O)N4CCCC4)C3)ccc12 (stereo unspecified)	12.5	5.81	186	68.6 (≈ 165 µM)	–	–
O=C(COCC1CC1)N1CCCc2ncccc21	0.825	13.8	68	33.9 (≈ 138 µM)	–	–
CCCn1ncc2ccc(C3CCCN(CC(=O)N4CCCC4)C3)nc21 (stereo unspecified)	6.7	27.6	289	49.4 (≈ 139 µM)	–	–
CC1(C)Cc2cc(NC(=O)c3cnn4cccnc34)c(N3CCN(CC(F)F)CC3)nc2O1	7.71	18.6	121	76.9 (≈ 168 µM)	–	–
Cc1nccc(-c2ccc(-c3noc(CN4CCOCC4)n3)cc2)n1	0.677	≤ 4.74	106	61 (≈ 181 µM)	–	–
CN(Cc1ccccc1)C(=O)c1ccc(-n2cccn2)nc1	0.566	≤ 4.74	4990	38.8 (≈ 133 µM)	–	–

Further lines, results first:

MDR1-MDCK efflux ratio	intrinsic clearance, human liver microsomes [mL/min/kg]	intrinsic clearance, rat liver microsomes [mL/min/kg]	aqueous solubility [µg/mL]	fraction unbound, human plasma	fraction unbound, rat plasma	Compound
0.092	–	–	0.14 (≈ 0.438 µM)	–	–	CCc1nnc2c3ccccc3nc(Nc3ccc(OC)cc3)n12
0.716	27.8	655	18.5 (≈ 74.2 µM)	–	–	Cc1cc(OCc2ncc(C(C)(C)C)o2)nn1C
0.969	391	1930	19.1 (≈ 45.1 µM)	–	–	COc1ccc(NC(=O)C(C)N2CCCN(c3ccc(C(F)(F)F)cn3)CC2)cc1 (stereo unspecified)
–	15.5	137	51.8 (≈ 165 µM)	–	–	COc1cc(CN(C)C(=O)Nc2cccc(C)c2C)ccc1O
–	–	–	8.7 (≈ 32.7 µM)	–	–	COc1cc(C#N)ccc1Oc1nc2ccccc2o1
1.02	11.6	≤ 10.7	46.6 (≈ 139 µM)	–	–	CCN1CCc2nc(NC(=O)Cc3ccc(Cl)cc3)sc2C1
–	–	–	11.8 (≈ 40.1 µM)	–	–	CCC(Oc1ccccc1)C(=O)Nc1nc2ccccc2[nH]1 (stereo unspecified)
15.4	184	875	29.1 (≈ 88.5 µM)	–	–	O=C(Cc1ccc2ccccc2c1)NCCc1nc2ccccc2[nH]1
–	156	1250	–	–	–	COc1ncccc1CNc1c(C#N)cnc2c(C)cc(F)cc12
33.5	≤ 4.74	58.1	–	–	–	CN(Cc1ccc(N)nc1)c1nc2cc(F)ccc2o1
0.768	≤ 4.74	63.1	17.9 (≈ 81.2 µM)	–	–	CC(C)c1nnc(NCc2ccn(C)c2)o1
–	≤ 4.74	151	25.4 (≈ 103 µM)	–	–	COc1ccc(CCCNc2nnc(C)o2)cc1
15.4	8.35	69.8	29.2 (≈ 70.9 µM)	–	–	CC(C)(O)C(=O)N1CCC(c2ccc3c(NCc4ccccc4F)n[nH]c3n2)CC1
2.99	161	1900	2.71 (≈ 7.14 µM)	–	–	O=C(NC1CCCCCC1)c1ccc(CSc2nc3ccccc3[nH]2)cc1
0.989	87.5	492	10.3 (≈ 29.7 µM)	–	–	Cc1ccc(-c2nc(NCc3ccco3)ncc2-c2cc(C)no2)cn1
0.697	18.7	483	–	–	–	CN(C)c1cncc(-c2ccc(C(=O)NC(C)(C)C)cc2)n1
0.179	35.7	305	2.34 (≈ 7.92 µM)	–	–	Cc1csc(NC(=O)c2ccc(-c3ccncc3)cc2)n1
